Reference: ChEMBL document CHEMBL3046389, “Synthesis and biological evaluation of novel hydroquinone dimethyl ethers as potential anticancer and antimicrobial agents” (2013)

Assays:
Assay type in all cases: functional
RXF 393 [1] = test: Anticancer activity against Homo sapiens (human) RXF393 cells after 48 hr by SRB assay; details: RXF 393, 48 h
HL-60(TB) = test: Anticancer activity against Homo sapiens (human) HL-60(TB) cells after 48 hr by SRB assay; details: HL-60, 48 h
Hs-578T = test: Anticancer activity against Homo sapiens (human) Hs 578T cells after 48 hr by SRB assay
SN12C = test: Anticancer activity against Homo sapiens (human) SN12C cells after 48 hr by SRB assay
SNB-75 = test: Anticancer activity against Homo sapiens (human) SNB75 cells after 48 hr by SRB assay; details: SNB-75, 48 h
PC-3 = test: Anticancer activity against Homo sapiens (human) PC3 cells after 48 hr by SRB assay; details: PC-3, 48 h
MCF7 = test: Anticancer activity against Homo sapiens (human) MCF7 cells after 48 hr by SRB assay; details: MCF7, 48 h
A549 = test: Growth inhibition of Homo sapiens (human) A549/ATCC cells at 10 uM after 48 hr by SRB assay; details: A549, 48 h, read-out: GI
UACC-62 = test: Anticancer activity against Homo sapiens (human) UACC62 cells after 48 hr by SRB assay; details: UACC-62, 48 h
SNB-19 = test: Anticancer activity against Homo sapiens (human) SNB19 cells after 48 hr by SRB assay; details: SNB-19, 48 h
MDA-MB-435 = test: Anticancer activity against Homo sapiens (human) MDA-MB-435 cells after 48 hr by SRB assay; details: MDA-MB-435, 48 h
SK-MEL-5 = test: Anticancer activity against Homo sapiens (human) SK-MEL-5 cells after 48 hr by SRB assay; details: SK-MEL-5, 48 h
NCI-H460 [2] = test: Growth inhibition of Homo sapiens (human) NCI-H460 cells at 10 uM after 48 hr by SRB assay; details: NCI-H460, 48 h, read-out: GI
OVCAR-4 = test: Anticancer activity against Homo sapiens (human) OVCAR4 cells after 48 hr by SRB assay; details: OVCAR-4, 48 h
T47D = test: Anticancer activity against Homo sapiens (human) T47D cells after 48 hr by SRB assay
786-0 = test: Growth inhibition of Homo sapiens (human) 786-0 cells at 10 uM after 48 hr by SRB assay; details: 786-0, 48 h, read-out: GI
UO-31 = test: Anticancer activity against Homo sapiens (human) UO31 cells after 48 hr by SRB assay; details: UO-31, 48 h
MDA-MB-468 = test: Anticancer activity against Homo sapiens (human) MDA-MB-468 cells after 48 hr by SRB assay; details: MDA-MB-468, 48 h
RPMI-8226 = test: Anticancer activity against Homo sapiens (human) RPMI8226 cells after 48 hr by SRB assay; details: RPMI-8226, 48 h
NCI-H522 = test: Anticancer activity against Homo sapiens (human) NCI-H522 cells after 48 hr by SRB assay; details: NCI-H522, 48 h
NCI-H460 [3] = test: Anticancer activity against Homo sapiens (human) NCI-H460 cells after 48 hr by SRB assay; details: NCI-H460, 48 h
SW-620 = test: Anticancer activity against Homo sapiens (human) SW620 cells after 48 hr by SRB assay; details: SW-620, 48 h
SK-MEL-2 = test: Anticancer activity against Homo sapiens (human) SK-MEL-2 cells after 48 hr by SRB assay; details: SK-MEL-2, 48 h
CCRF-CEM = test: Anticancer activity against Homo sapiens (human) CCRF-CEM cells after 48 hr by SRB assay
RXF 393 [4] = test: Growth inhibition of Homo sapiens (human) RXF393 cells at 10 uM after 48 hr by SRB assay; details: RXF 393, 48 h, read-out: GI
UACC-257 = test: Anticancer activity against Homo sapiens (human) UACC257 cells after 48 hr by SRB assay; details: UACC-257, 48 h
HCT-116 = test: Growth inhibition of Homo sapiens (human) HCT116 cells at 10 uM after 48 hr by SRB assay; details: HCT-116, 48 h, read-out: GI
[5] = read-out: LC50 (the source's name)

COc1ccc(OC)c(/C=C/c2nnc(Nc3ccc(Cl)cc3)o2)c1
GI50 (RXF 393 [1]): 2.71 µM
LC50 (RXF 393 [1]): 56.1 µM
TGI (RXF 393 [1]): 7.92 µM
GI50 (HL-60(TB)): > 100 µM
TGI (HL-60(TB)): > 100 µM
CC50 (HL-60(TB); [5]): > 100 µM
GI50 (Hs-578T): 2.71 µM
TGI (Hs-578T): 8.01 µM
CC50 (Hs-578T; [5]): > 100 µM
GI50 (SN12C): 4.21 µM
LC50 (SN12C): > 100 µM
TGI (SN12C): > 100 µM
GI50 (SNB-75): 2.26 µM
TGI (SNB-75): 7.94 µM
CC50 (SNB-75; [5]): > 100 µM
GI50 (PC-3): 13.3 µM
TGI (PC-3): 76 µM
CC50 (PC-3; [5]): > 100 µM
GI50 (MCF7): 20.7 µM
TGI (MCF7): > 100 µM
CC50 (MCF7; [5]): > 100 µM
inhibition of growth at 10 µM (A549): 59.8%
GI50 (UACC-62): 16.2 µM
LC50 (UACC-62): > 100 µM
TGI (UACC-62): > 100 µM
GI50 (SNB-19): 13.8 µM
TGI (SNB-19): > 100 µM
CC50 (SNB-19; [5]): > 100 µM
GI50 (MDA-MB-435): 37 µM
TGI (MDA-MB-435): > 100 µM
CC50 (MDA-MB-435; [5]): > 100 µM
GI50 (SK-MEL-5): 7.17 µM
LC50 (SK-MEL-5): > 100 µM
TGI (SK-MEL-5): > 100 µM
inhibition of growth at 10 µM (NCI-H460 [2]): 84.5%
GI50 (OVCAR-4): 2.44 µM
TGI (OVCAR-4): 6.76 µM
CC50 (OVCAR-4; [5]): > 100 µM
GI50 (T47D): 2.54 µM
TGI (T47D): > 100 µM
CC50 (T47D; [5]): > 100 µM
inhibition of growth at 10 µM (786-0): 72.1%
GI50 (UO-31): 3.13 µM
LC50 (50% lethal concentration) (UO-31): 78 µM
TGI (UO-31): 12.6 µM
GI50 (MDA-MB-468): 16.4 µM
TGI (MDA-MB-468): > 100 µM
CC50 (MDA-MB-468; [5]): > 100 µM
GI50 (RPMI-8226): > 100 µM
TGI (RPMI-8226): > 100 µM
CC50 (RPMI-8226; [5]): > 100 µM
GI50 (NCI-H522): 7.13 µM
TGI (NCI-H522): 83.7 µM
CC50 (NCI-H522; [5]): > 100 µM
GI50 (NCI-H460 [3]): 3.77 µM
TGI (NCI-H460 [3]): > 100 µM
CC50 (NCI-H460 [3]; [5]): > 100 µM
GI50 (SW-620): 18.3 µM
TGI (SW-620): > 100 µM
CC50 (SW-620; [5]): > 100 µM
GI50 (SK-MEL-2): 9.66 µM
TGI (SK-MEL-2): > 100 µM
CC50 (SK-MEL-2; [5]): > 100 µM
GI50 (CCRF-CEM): > 100 µM
TGI (CCRF-CEM): > 100 µM
CC50 (CCRF-CEM; [5]): > 100 µM
inhibition of growth at 10 µM (RXF 393 [4]): 43.7%
GI50 (UACC-257): 21.3 µM
LC50 (50% lethal concentration) (UACC-257): > 100 µM
TGI (UACC-257): > 100 µM
inhibition of growth at 10 µM (HCT-116): 78.1%
